The values below come from US20230118517A1, “METHODS OF TREATING MULTIPLE MYELOMA” (Seagen Inc., priority 2020, published 2023).

For experiment [1], the system named is MM1R myeloma target cells. Description: PBMC-mediated MM1R target cell killing, second experiment (PBMC pretreated 5 days, 0.5 μM pomalidomide). Format: cell-based. The note with it: PBMC:MM1R 10:1, overnight, with or without 0.5 μM pomalidomide. On the procedure:
(§1) Experiments were performed to test whether SEA-BCMA combines effectively with pomalidomide in vitro by combining PBMC effector cells with MM1R target cells treated with both pomalidomide and SEA-BCMA or antibody controls. The first experiment (FIG. 12A) benchmarks against MM standard of care elotuzumab and nonfucosylated parent BCMA antibody. The second experiment (FIG. 12B) benchmarks against MM standard of care daratumumab. MM1R target cells express 15,000 copies of BCMA, 12,000 copies of CS1 (elotuzumab target), and 36,000 copies of CD38 (daratumumab target).
In the second experiment (FIG. 12B), normal donor PBMCs of the FcγRIII V/F genotype were treated with or without 0.5 μM pomalidomide (APEx Bio, cat #A4211) for 5 days. The resulting PBMCs were then washed and mixed with CFSE (Invitrogen cat #V12883) labeled MM1R myeloma target cells at an effector-to-target cell ratio of 10:1. The mixture was then treated with a dose range of the following antibodies: SEA-BCMA, daratumumab, or non-binding hIgG1k antibody control (Sigma cat #15154) with or without 0.5 μM pomalidomide (APEx Bio, cat #A4211) and incubated overnight. Percentage live MM1R cells were then determined using the viability dye 7-AAD (BD Biosciences, cat #559925) by flow cytometry.

Experiment [2] relates to MM1R myeloma target cells. The experiment can be described thus: PBMC-mediated MM1R target cell killing, first experiment (48 hrs, 3 μM pomalidomide). Format: cell-based. Particulars: PBMC:MM1R 10:1, 48 hrs, with or without 3 μM pomalidomide. The method, then: as §1
In the first experiment (FIG. 12A), normal donor PBMCs of the FcγRIII V/F genotype were mixed with CFSE (Invitrogen cat #V12883) labeled MM1R myeloma target cells at an effector-to-target cell ratio of 10:1. The mixture was treated with a dose range of the following antibodies: SEA-BCMA, elotuzumab, WT-BCMA (fucosylated parent Ab), or non-binding hIgG1k antibody control (Sigma cat #15154) with or without 3 μM pomalidomide (APEx Bio, cat #A4211). After 48 hrs, the % live MM1R cells were then determined using the viability dye 7-AAD (BD Biosciences, cat #559925) by flow cytometry.

A further experiment concerns Molp-8 cells. Description: BCMA expression by flow cytometry after GSI incubation, Molp-8. Type of experiment: cell-based. For orientation: In flow cytometry, cells or beads pass a laser one at a time.
For the next experiment, the system named is U266. The experiment can be described thus: BCMA expression by flow cytometry after Nirogacestat, U266. Format: cell-based. The note with it: U266, after incubation with Nirogacestat (FIG. 9A).
In another experiment the test system is NF-κB p65. Description: NF-κB p65 activity ELISA on nuclear extract. Format: cell-based. The note with it: NCI-H929, serum-starved, 0.2 μM Nirogacestat 16 hrs, +/- 1 μg/ml APRIL. On the procedure:
The secondary mechanism of action of SEA-BCMA is to block BCMA proliferative cell signaling. Increased BCMA from GSI treatment is expected to induce increased BCMA signaling. Therefore, the block of this enhanced signaling by SEA-BCMA was tested. BCMA-expressing NCI-H929 cells were serum-starved with and without 0.2 μM Nirogacestat (purchased from SelleckChem) for 16 hrs. Cells were then bound with and without 20 μg/mL SEA-BCMA and incubated with and without 1 μg/ml recombinant human APRIL (R&D Systems) for 20 minutes at 37° C. in the presence or absence of 0.2 μM Nirogacestat. 1 μg of nuclear extract was assayed in duplicate for NF-κB p65 activity by ELISA (TransAM NFκB Chemi p65, Active Motif).

The test system of experiment [3] is FcγRIII. The experiment can be described thus: FcγRIII signaling ADCC reporter bioassay, Molp-8 target cells. Type of experiment: cell-based. Particulars: Molp-8 bound with antibody dose titrations, +/- DAPT, CD16A-Jurkat effector cells 6:1. The method, then: (§2) NCI-H929 or Molp-8 MM target cells were incubated with and without 1 μM DAPT for 24 hrs. […] FcγRIII signaling was determined using a surrogate assay as manufacturer describes (Promega ADCC reporter bioassay cat #G9302). Cells were bound with antibody dose titrations+/−GSI for 30 minutes at 37° C. CD16A-Jurkat effector cells were then added with a 6:1 effector-to-target cell ratio. After an overnight incubation, the assay was developed with Bio-Glo and relative luminescence units (RLU) were measured on an Envision plate reader. […] Enhanced signaling is the first step in the primary mechanism of action of SEA-BCMA. This signaling can translate to increased anti-MM cell lysis through ADCC.

The subject of a further experiment is NCI-H929 cells. Description: BCMA expression by flow cytometry after GSI incubation, NCI-H929. Format: cell-based. The note with it: NCI-H929, 1 μM DAPT for 24 hrs vs untreated.
Experiment [4] relates to FcγRIII. The experiment can be described thus: FcγRIII signaling ADCC reporter bioassay, NCI-H929 target cells. Format: cell-based. The note with it: NCI-H929 bound with antibody dose titrations, +/- DAPT, CD16A-Jurkat effector cells 6:1. The method, then: as §2
Experiment [5] deals with T1, human BCMA (B-cell maturation antigen) (human, UniProt Q02223 1-184).
T1 construct: Endogenous BCMA on MM1R and NCI-H929 cell lines and on patients' multiple myeloma cells; also called membrane BCMA; cell-surface BCMA
T1 sequence: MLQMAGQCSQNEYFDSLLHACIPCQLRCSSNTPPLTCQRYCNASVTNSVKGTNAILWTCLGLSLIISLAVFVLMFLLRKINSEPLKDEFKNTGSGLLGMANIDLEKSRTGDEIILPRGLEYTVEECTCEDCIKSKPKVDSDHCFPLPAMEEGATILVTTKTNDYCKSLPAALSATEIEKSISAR
The experiment can be described thus: in vitro cell binding capacity assay, flow cytometry on MM1R cells.

In experiment [6] the target is T1, human BCMA (B-cell maturation antigen). The experiment can be described thus: flow cytometry on MM cells from bone marrow aspirates.

Take “Daratumumab: anti-CD38 antibody, MM standard of care [reference compound]”: the “MM1R target cell killing (percentage live MM1R cells)” value in [1] is “less activity than SEA-BCMA”. Turning to “Elotuzumab: MM standard of care antibody; target CS1 [reference compound]”, in experiment [2], the “MM1R target cell killing (% live MM1R cells)” value is given as “no impact on cells unless pomalidomide was added”. In the case of `CCC[C@H](N[C@H]1CCc2cc(F)cc(F)c2C1)C(=O)Nc1cn(C(C)(C)CNCC(C)(C)C)cn1` [Nirogacestat], the BCMA expression entry with Molp-8 cells (Molp-8, Nirogacestat treated vs untreated (FIG. 9A legend)) was “increased BCMA expression”; in the experiment on U266, “increased BCMA expression”. In addition, the “NF-κB signaling (p65 activity, RLU)” value in the experiment with NF-κB p65 was “increased NF-κB signaling”. Take `C[C@H](NC(=O)Cc1cc(F)cc(F)c1)C(=O)N[C@H](C(=O)OC(C)(C)C)c1ccccc1` [DAPT]: the BCMA expression entry in the experiment on Molp-8 cells (Molp-8, 1 μM DAPT for 24 hrs vs untreated) is given as “increased BCMA expression”; in the experiment on NCI-H929 cells it was “increased BCMA expression”. Further, the FcγRIII signaling entry with FcγRIII [3] and in the experiment on FcγRIII [4] was “increased FcγRIII signaling” in each case.

B1: SEA-BCMA (antibody, human IgG1, kappa, V domains shown)
VH: QVQLVQSGAEVKKPGASVKLSCKASGYTFTDYYIHWVRQAPGQGLEWIGYINPNSGYTNYAQKFQGRATMTADKSINTAYVELSRLRSDDTAVYFCTRYMWERVTGFFDFWGQGTMVTVSS
VL: DIQMTQSPSSVSASVGDRVTITCLASEDISDDLAWYQQKPGKAPKVLVYTTSSLQSGVPSRFSGSGSGTDFTLTISSLQPEDFATYFCQQTYKFPPTFGGGTKVEIKR
notes: also called non-fucosylated monoclonal anti-BCMA antibody
Turning to B1, the binding result in experiment [5] is “binds”.

B2: APRIL (a proliferation-inducing ligand) (ligand, human, UniProt O75888 105-250, looked up)
chain: AVLTQKQKKQHSVLHLVPINATSKDDSDVTEVMWQPALRRGRGLQAQGYGVRIQDAGVYLLYSQVLFQDVTFTMGQVVSREGQGRQETLFRCIRSMPSHPDRAYNSCYSAGVFHLHQGDILSVIIPRARAKLNLSPHGTFLGFVKL
Take B2: the binding result in [6] is reported as “binds”.
